Laboratory results as given in ChEMBL document CHEMBL1201862, “PubChem BioAssay data set” (2004).
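A five-concentration, 48-hour dose response in 96-well plates underlies each endpoint, interpolated linearly between surrounding concentrations. GI50 is the concentration that inhibits growth by half.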 The source made the active and inactive calls. Cut-off read from the data, not from the text of the source: active = GI50 up to about 1.1 µM and inactive = higher.

How the values were obtained:
Assay in all cases: inhibition of tumour cell growth, NCI panel, 48 h
SK-OV-3 = tested on: SK-OV-3
MOLT-4 = tested on: MOLT-4
LOX IMVI = tested on: LOX IMVI
RPMI-8226 = tested on: RPMI-8226
SNB-75 = tested on: SNB-75
T47D = tested on: T47D
ACHN = tested on: ACHN
MDA-N = tested on: MDA-N
IGROV-1 = tested on: IGROV-1
DU-145 = tested on: DU-145
NCI-H226 = tested on: NCI-H226
SNB-19 = tested on: SNB-19
Hs-578T = tested on: Hs-578T
SW-620 = tested on: SW-620
BT-549 = tested on: BT-549
SF-539 = tested on: SF-539
OVCAR-8 = tested on: OVCAR-8
HCT-116 = tested on: HCT-116
NCI-H460 = tested on: NCI-H460
SN12C = tested on: SN12C
HCT-15 = tested on: HCT-15
SK-MEL-28 = tested on: SK-MEL-28
KM12 = tested on: KM12
MDA-MB-231 = tested on: MDA-MB-231
A549 = tested on: A549
HCC 2998 = tested on: HCC 2998
M14 = tested on: M14
SF-295 = tested on: SF-295
SR = tested on: SR
MCF7 = tested on: MCF7
HL-60 = tested on: HL-60
UACC-62 = tested on: UACC-62
CCRF-CEM = tested on: CCRF-CEM
UACC-257 = tested on: UACC-257
CAKI-1 = tested on: CAKI-1
COLO 205 = tested on: COLO 205
TK-10 = tested on: TK-10
786-0 = tested on: 786-0
A498 = tested on: A498
NCI-H23 = tested on: NCI-H23
SK-MEL-5 = tested on: SK-MEL-5
EKVX = tested on: EKVX
PC-3 = tested on: PC-3
SF-268 = tested on: SF-268
HT-29 = tested on: HT-29
K562 = tested on: K562
NCI-H522 = tested on: NCI-H522
MDA-MB-435 = tested on: MDA-MB-435
Malme-3M = tested on: Malme-3M
HOP-62 = tested on: HOP-62
UO-31 = tested on: UO-31
U-251 = tested on: U-251
HOP-92 = tested on: HOP-92
OVCAR-5 = tested on: OVCAR-5
RXF 393 = tested on: RXF 393
OVCAR-3 = tested on: OVCAR-3
OVCAR-4 = tested on: OVCAR-4
SK-MEL-2 = tested on: SK-MEL-2

SMILES: C=CCOCn1ccc(NC(=O)c2ccccc2)nc1=O
- GI50 (SK-OV-3): > 100 µM (inactive)
- GI50 (MOLT-4): > 100 µM (inactive)
- GI50 (LOX IMVI): > 100 µM (inactive)
- GI50 (RPMI-8226): > 100 µM (inactive)
- GI50 (SNB-75): > 100 µM (inactive)
- GI50 (T47D): > 100 µM (inactive)
- GI50 (ACHN): > 100 µM (inactive)
- GI50 (MDA-N): > 100 µM (inactive)
- GI50 (IGROV-1): > 100 µM (inactive)
- GI50 (DU-145): > 100 µM (inactive)
- GI50 (NCI-H226): > 100 µM (inactive)
- GI50 (SNB-19): > 100 µM (inactive)
- GI50 (Hs-578T): > 100 µM (inactive)
- GI50 (SW-620): > 100 µM (inactive)
- GI50 (BT-549): > 100 µM (inactive)
- GI50 (SF-539): > 100 µM (inactive)
- GI50 (OVCAR-8): > 100 µM (inactive)
- GI50 (HCT-116): > 100 µM (inactive)
- GI50 (NCI-H460): > 100 µM (inactive)
- GI50 (SN12C): > 100 µM (inactive)
- GI50 (HCT-15): > 100 µM
- GI50 (SK-MEL-28): > 100 µM (inactive)
- GI50 (KM12): > 100 µM (inactive)
- GI50 (MDA-MB-231): > 100 µM (inactive)
- GI50 (A549): > 100 µM (inactive)
- GI50 (HCC 2998): > 100 µM (inactive)
- GI50 (M14): > 100 µM (inactive)
- GI50 (SF-295): > 100 µM (inactive)
- GI50 (SR): > 100 µM (inactive)
- GI50 (MCF7): > 100 µM (inactive)
- GI50 (HL-60): > 100 µM (inactive)
- GI50 (UACC-62): > 100 µM (inactive)
- GI50 (CCRF-CEM): > 100 µM (inactive)
- GI50 (UACC-257): > 100 µM (inactive)
- GI50 (CAKI-1): > 100 µM (inactive)
- GI50 (COLO 205): > 100 µM (inactive)
- GI50 (TK-10): > 100 µM (inactive)
- GI50 (786-0): > 100 µM (inactive)
- GI50 (A498): > 100 µM (inactive)
- GI50 (NCI-H23): > 100 µM (inactive)
- GI50 (SK-MEL-5): > 100 µM (inactive)
- GI50 (EKVX): > 100 µM (inactive)
- GI50 (PC-3): > 100 µM (inactive)
- GI50 (SF-268): > 100 µM (inactive)
- GI50 (HT-29): > 100 µM (inactive)
- GI50 (K562): > 100 µM (inactive)
- GI50 (NCI-H522): > 100 µM (inactive)
- GI50 (MDA-MB-435): > 100 µM (inactive)
- GI50 (Malme-3M): > 100 µM (inactive)
- GI50 (HOP-62): > 100 µM (inactive)
- GI50 (UO-31): > 100 µM (inactive)

SMILES: COc1cc2c(c(O)c1OC)-c1c(cc(OC)c(OC)c1OC)CC(C)C(C)C2 (centres undefined) [GOMISIN K3]
- GI50 (SK-OV-3): 82.4 µM (inactive)
- GI50 (MOLT-4): 16.6 µM (inactive)
- GI50 (LOX IMVI): 49.9 µM (inactive)
- GI50 (RPMI-8226): 39.4 µM (inactive)
- GI50 (SNB-75): 34.3 µM (inactive)
- GI50 (T47D): 30.4 µM (inactive)
- GI50 (ACHN): 39.1 µM (inactive)
- GI50 (MDA-N): 73.3 µM (inactive)
- GI50 (IGROV-1): 51.1 µM (inactive)
- GI50 (DU-145): 45.8 µM (inactive)
- GI50 (NCI-H226): 42.8 µM (inactive)
- GI50 (SNB-19): 60.8 µM (inactive)
- GI50 (Hs-578T): 69.8 µM (inactive)
- GI50 (SW-620): 70.3 µM (inactive)
- GI50 (BT-549): 40.8 µM (inactive)
- GI50 (SF-539): 66.1 µM (inactive)
- GI50 (U-251): 49.9 µM (inactive)
- GI50 (HOP-92): 36.7 µM (inactive)
- GI50 (OVCAR-8): 51.9 µM (inactive)
- GI50 (HCT-116): 34.7 µM (inactive)
- GI50 (OVCAR-5): > 100 µM (inactive)
- GI50 (NCI-H460): 31.2 µM (inactive)
- GI50 (SN12C): 47.8 µM (inactive)
- GI50 (HCT-15): 33 µM
- GI50 (SK-MEL-28): 67.1 µM (inactive)
- GI50 (KM12): 61.1 µM (inactive)
- GI50 (MDA-MB-231): 37.8 µM (inactive)
- GI50 (A549): 43.7 µM (inactive)
- GI50 (HCC 2998): 42.3 µM (inactive)
- GI50 (M14): 45.1 µM (inactive)
- GI50 (SF-295): 33.9 µM (inactive)
- GI50 (SR): 31.3 µM (inactive)
- GI50 (RXF 393): 30.9 µM (inactive)
- GI50 (MCF7): 33 µM (inactive)
- GI50 (HL-60): 25.5 µM (inactive)
- GI50 (UACC-62): 43.1 µM (inactive)
- GI50 (CCRF-CEM): 23.4 µM (inactive)
- GI50 (UACC-257): 25.6 µM (inactive)
- GI50 (CAKI-1): 42.8 µM (inactive)
- GI50 (OVCAR-3): 47.1 µM (inactive)
- GI50 (COLO 205): 32 µM (inactive)
- GI50 (TK-10): 26.5 µM (inactive)
- GI50 (786-0): 37.7 µM (inactive)
- GI50 (A498): 35.1 µM (inactive)
- GI50 (NCI-H23): 49 µM (inactive)
- GI50 (SK-MEL-5): 35.6 µM (inactive)
- GI50 (EKVX): 47.3 µM (inactive)
- GI50 (PC-3): 28.6 µM (inactive)
- GI50 (SF-268): 78 µM (inactive)
- GI50 (HT-29): 40.6 µM (inactive)
- GI50 (K562): 38.8 µM (inactive)
- GI50 (NCI-H522): 44.6 µM (inactive)
- GI50 (MDA-MB-435): 50 µM (inactive)
- GI50 (OVCAR-4): 30.3 µM (inactive)
- GI50 (Malme-3M): 68.7 µM (inactive)
- GI50 (HOP-62): > 100 µM (inactive)
- GI50 (UO-31): 29.4 µM (inactive)
- GI50 (SK-MEL-2): 45.2 µM (inactive)
